Where a name gives a salt, the structure may show the parent alone. No end group written: not given here.
Experiments:
[1] = target: T1, AM2 receptor (CALCRL+RAMP3) (Homo sapiens, UniProt O60896+Q16602); assay: AM2 receptor inhibition, LANCE TR-FRET cAMP agonist-antagonist competition assay; assay type: cell-based; conditions: inhibition of AM induced cAMP activation; 1321N1 cells transfected with CALCRL+RAMP3; read-out: AM2 pIC50 (converted)
T1 construct: host or cells: 1321N1

[2] = test system: human pancreatic cancer cells; conditions: local injection directly into tumours, pancreatic cancer model; cited from earlier work

T1 sequence (Q16602 23-461): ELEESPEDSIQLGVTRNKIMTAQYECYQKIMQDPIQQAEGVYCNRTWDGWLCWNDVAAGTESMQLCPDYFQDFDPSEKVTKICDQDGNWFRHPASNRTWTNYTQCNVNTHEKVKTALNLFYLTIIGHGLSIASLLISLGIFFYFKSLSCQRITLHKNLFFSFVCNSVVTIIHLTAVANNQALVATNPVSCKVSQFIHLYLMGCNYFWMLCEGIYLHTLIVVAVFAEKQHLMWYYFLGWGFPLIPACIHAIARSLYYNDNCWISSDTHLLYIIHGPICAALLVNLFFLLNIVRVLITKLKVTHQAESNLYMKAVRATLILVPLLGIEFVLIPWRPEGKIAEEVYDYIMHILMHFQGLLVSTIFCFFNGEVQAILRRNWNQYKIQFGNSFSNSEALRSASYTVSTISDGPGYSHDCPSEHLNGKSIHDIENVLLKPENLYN
T1 sequence (O60896 24-148): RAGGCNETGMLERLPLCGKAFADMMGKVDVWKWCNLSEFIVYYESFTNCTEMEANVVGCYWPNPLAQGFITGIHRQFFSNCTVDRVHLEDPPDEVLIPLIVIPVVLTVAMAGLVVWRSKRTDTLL

Row | IC50 [1] | Compound | tumour size compared to controls [2]
1 | 7.41 nM | CNCc1ccccc1CN(CC(=O)Nc1ccc2c(c1)CC1(C2)C(=O)Nc2ncccc21)C(=O)N1CCCC1 (centres unmarked) [Example 81, N-(2-((Methylamino)methyl)benzyl)-N-(2-oxo-2-((2′-oxo-1,1′,2′,3-tetrahydrospiro[indene-2,3′-pyrrolo[2,3-b]pyridin]-5-yl)amino)ethyl)pyrrolidine-1-carboxamide] | 
2 | 263 nM | CNCc1ccccc1CN(CC(=O)Nc1ccc2c(c1)CC1(C2)C(=O)Nc2ncccc21)C(=O)N(C)OC (centres unmarked) [Example 82, 2-(3-Methoxy-3-methyl-1-(2-((methylamino)methyl)benzyl)ureido)-N-(2′-oxo-1,1′,2′,3-tetrahydrospiro[indene-2,3′-pyrrolo[2,3-b]pyridin]-5-yl)acetamide] | 
3 | 42.7 nM | CNCc1ccccc1CN(CC(=O)Nc1ccc2c(c1)CC1(C2)C(=O)Nc2ncccc21)C(=O)NC1CCCC1 (centres unmarked) [Example 83, 2-(3-Cyclopentyl-1-(2-((methylamino)methyl)benzyl)ureido)-N-(2′-oxo-1,1′,2′,3-tetrahydrospiro[indene-2,3′-pyrrolo[2,3-b]pyridin]-5-yl)acetamide] | 
4 | 52.5 nM | CNCc1ccccc1CN(CC(=O)Nc1ccc2c(c1)CC1(C2)C(=O)Nc2ncccc21)C(=O)NC(C)C (centres unmarked) [Example 84, 2-(3-Isopropyl-1-(2-((methylamino)methyl)benzyl)ureido)-N-(2′-oxo-1,1′,2′,3-tetrahydrospiro[indene-2,3′-pyrrolo[2,3-b]pyridin]-5-yl)acetamide] | 
5 | 234 nM | CNCc1ccccc1CN(CC(=O)Nc1ccc2c(c1)CC1(C2)C(=O)Nc2ncccc21)C(=O)N(C)C (centres unmarked) [Example 85, 2-(3,3-Dimethyl-1-(2-((methylamino)methyl)benzyl)ureido)-N-(2′-oxo-1,1′,2′,3-tetrahydrospiro[indene-2,3′-pyrrolo[2,3-b]pyridin]-5-yl)acetamide] | 
6 | 43.7 nM | CNCc1ccccc1CN(CC(=O)Nc1ccc2c(c1)CC1(C2)C(=O)Nc2ncccc21)C(=O)N1CCCCC1 (centres unmarked) [Example 87, N-(2-((Methylamino)methyl)benzyl)-N-(2-oxo-2-((2′-oxo-1,1′,2′,3-tetrahydrospiro[indene-2,3′-pyrrolo[2,3-b]pyridin]-5-yl)amino)ethyl)piperidine-1-carboxamide] | 
7 | 148 nM | CNCc1ccccc1CN(CC(=O)Nc1ccc2c(c1)CC1(C2)C(=O)Nc2ncccc21)C(=O)C1CCNCC1 (centres unmarked) [Example 88, N-(2-((Methylamino)methyl)benzyl)-N-(2-oxo-2-((2′-oxo-1,1′,2′,3-tetrahydrospiro[indene-2,3′-pyrrolo[2,3-b]pyridin]-5-yl)amino)ethyl)piperidine-4-carboxamide] | 
8 | 87.1 nM | CNCc1ccccc1CN(CC(=O)Nc1ccc2c(c1)CC1(C2)C(=O)Nc2ncccc21)C(=O)N1CCC2(CCNCC2)CC1 (centres unmarked) [Example 89, N-(2-((Methylamino)methyl)benzyl)-N-(2-oxo-2-((2′-oxo-1,1′,2′,3-tetrahydrospiro[indene-2,3′-pyrrolo[2,3-b]pyridin]-5-yl)amino)ethyl)-3,9-diazaspiro[5.5]undecane-3-carboxamide] | 
9 | 501 nM | CNCc1ccccc1CN(CC(=O)Nc1ccc2c(c1)CC1(C2)C(=O)Nc2ncccc21)C(=O)N1CCC2(CCNCC2)C1 (centres unmarked) [Example 90, N-(2-((Methylamino)methyl)benzyl)-N-(2-oxo-2-((2′-oxo-1,1′,2′,3-tetrahydrospiro[indene-2,3′-pyrrolo[2,3-b]pyridin]-5-yl)amino)ethyl)-2,8-diazaspiro[4.5]decane-2-carboxamide] | 
10 | 24 nM | CNCc1ccccc1CN(CC(=O)Nc1ccc2c(c1)CC1(C2)C(=O)Nc2ncccc21)C(=O)C(C)(C)c1ccc(CN2CCNCC2)cc1 (centres unmarked) [Example 91, 2-Methyl-N-(2-((methylamino)methyl)benzyl)-N-(2-oxo-2-((2′-oxo-1,1′,2′,3-tetrahydrospiro[indene-2,3′-pyrrolo[2,3-b]pyridin]-5-yl)amino)ethyl)-2-(4-(piperazin-1-ylmethyl)phenyl)propanamide] | 
11 | 79.4 nM | CNCc1ccccc1CN(CC(=O)Nc1ccc2c(c1)C[C@@]1(C2)C(=O)Nc2ncccc21)C(=O)C12CC3CC(CC(C3)C1)C2 [Example 92, N-[[2-(methylaminomethyl)phenyl]methyl]-N-[2-oxo-2-[[(3R)-2-oxospiro[1H-pyrrolo[2,3-b]pyridine-3,2′-indane]-5′-yl]amino]ethyl]adamantane-1-carboxamide 2,2,2-trifluoroacetate] | 
12 | 17.8 nM | CNCc1ccccc1CN(CC(=O)Nc1ccc2c(c1)C[C@@]1(C2)C(=O)Nc2ncccc21)C(=O)C1(C(F)(F)F)CCCC1 [Example 94, N-[[2-(methylaminomethyl)phenyl]methyl]-N-[2-oxo-2-[[(3R)-2-oxospiro[1H-pyrrolo[2,3-b]pyridine-3,2′-indane]-5′-yl]amino]ethyl]-1-(trifluoromethyl)cyclopentanecarboxamide 2,2,2-trifluoroacetate] | 
13 | 28.8 nM | CNCc1ccccc1CN(CC(=O)Nc1ccc2c(c1)C[C@@]1(C2)C(=O)Nc2ncccc21)C(=O)C(C)(C)F [Example 95, (R)-2-Fluoro-2-methyl-N-(2-((methylamino)methyl)benzyl)-N-(2-oxo-2-((2′-oxo-1,1′,2′,3-tetrahydrospiro[indene-2,3′-pyrrolo[2,3-b]pyridin]-5-yl)amino)ethyl)propanamide 2,2,2-trifluoroacetate] | 
14 | 49 nM | CNCc1ccccc1CN(CC(=O)Nc1ccc2c(c1)C[C@@]1(C2)C(=O)Nc2ncccc21)C(=O)C(C)(C)C(F)(F)F [Example 96, 3,3,3-trifluoro-2,2-dimethyl-N-[[2-(methylaminomethyl)phenyl]methyl]-N-[2-oxo-2-[[(3R)-2-oxospiro[1H-pyrrolo[2,3-b]pyridine-3,2′-indane]-5′-yl]amino]ethyl]propanamide 2,2,2-trifluoroacetate] | 
15 | 60.3 nM | CNCc1ccccc1CN(CC(=O)Nc1ccc2c(c1)C[C@@]1(C2)C(=O)Nc2ncccc21)C(=O)C(C)(C)CC(F)(F)F [Example 97, 4,4,4-Trifluoro-2,2-dimethyl-N-[[2-(methylaminomethyl)phenyl]methyl]-N-[2-oxo-2-[[(3R)-2-oxospiro[1H-pyrrolo[2,3-b]pyridine-3,2′-indane]-5′-yl]amino]ethyl]butanamide 2,2,2-trifluoroacetate] | 
16 | 21.4 nM | CCC1(C(=O)N(CC(=O)Nc2ccc3c(c2)C[C@@]2(C3)C(=O)Nc3ncccc32)Cc2ccccc2CNC)CCOCC1 [Example 98, 4-Ethyl-N-[[2-(methylaminomethyl)phenyl]methyl]-N-[2-oxo-2-[[(3R)-2-oxospiro[1H-pyrrolo [2,3-b]pyridine-3,2′-indane]-5′-yl]amino]ethyl]tetrahydropyran-4-carboxamide 2,2,2 trifluoroacetate] | 
17 | 245 nM | NCc1ccccc1CN(CC(=O)Nc1ccc2c(c1)C[C@@]1(C2)C(=O)Nc2ncccc21)C(=O)C1(C(F)(F)F)CC1 [Example 99, N-[[2-(Aminomethyl)phenyl]methyl]-N-[2-oxo-2-[(2-oxospiro[1H-pyrrolo[2,3-b]pyridine-3,2′-indane]-5′-yl)amino]ethyl]-1-(trifluoromethyl)cyclopropylcarboxamide 2,2,2-trifluoroacetate] | 
18 | 309 nM | CNCc1ccccc1CN(CC(=O)Nc1ccc2c(c1)C[C@@]1(C2)C(=O)Nc2ncccc21)C(=O)C12CC(NC(C)=O)(C1)C2 [Example 100, 3-Acetamido-N-[[2-(methylaminomethyl)phenyl]methyl]-N-[2-oxo-2-[[(3R)-2-oxospiro[1H-pyrrolo[2,3-b]pyridine-3,2′-indane]-5′-yl]amino]ethyl]bicyclo[1.1.1]pentane-1-carboxamide 2,2,2-trifluoroacetate] | 
19 | 39.8 nM | CC(C)(C)C(=O)N(CC(=O)Nc1ccc2c(c1)C[C@@]1(C2)C(=O)Nc2ncccc21)C1CNCc2ccccc21 (some centres unmarked) [Example 101, 2,2-Dimethyl-N-[2-oxo-2-[(2-oxospiro[1H-pyrrolo[2,3-b]pyridine-3,2′-indane]-5′-yl)amino]ethyl]-N-(1,2,3,4-tetrahydroisoquinolin-4-yl)propanamide 2,2,2-trifluoroacetate] | 
20 | 24 nM | CNCc1ccccc1CN(CC(=O)Nc1cc2c(cn1)CC1(C2)C(=O)Nc2ncccc21)C(=O)C(C)(C)C (centres unmarked) [Example 103, N-(2-((Methylamino)methyl)benzyl)-N-(2-oxo-2-((2′-oxo-1′,2′,5,7-tetrahydrospiro[cyclopenta[c]pyridine-6,3′-pyrrolo[2,3-b]pyridin]-3-yl)amino)ethyl)pivalamide] | 
21 | 151 nM | CNCc1ccccc1CN(CC(=O)Nc1ccc2c(n1)CC1(C2)C(=O)Nc2ncccc21)C(=O)C(C)(C)C (centres unmarked) [Example 104, N-(2-((methylamino)methyl)benzyl)-N-(2-oxo-2-((2′-oxo-1′,2′,5,7-tetrahydrospiro[cyclopenta[b]pyridine-6,3′-pyrrolo[2,3-b]pyridin]-2-yl)amino)ethyl)pivalamide] | 
22 | 50.1 nM | CNCc1ccccc1CN(CC(=O)Nc1cnc2c(c1)CC1(C2)C(=O)Nc2ncccc21)C(=O)C(C)(C)C (centres unmarked) [Example 105, N-(2-((methylamino)methyl)benzyl)-N-(2-oxo-2-((2′-oxo-1′,2′,5,7-tetrahydrospiro[cyclopenta[b]pyridine-6,3′-pyrrolo[2,3-b]pyridin]-3-yl)amino)ethyl)pivalamide 2,2,2-trifluoroacetate] | 
23 |  | AM22-52: "the AM peptide antagonist (AM22-52)"; "peptide and antibody AM2 receptor inhibitors are known such as AM22-52" (TVQKLAHQIYQFTDKDKDNVAPRSKISPQGY; ends and bridges not checked; UniProt P35318 116-146, looked up, fragment) | reduced tumour size significantly

From patent publication US11400081B2, “Compounds” (The University of Sheffield, priority 2017, dated 2022)
